# Values of other authors in patent US6761879B1, “Titanium derived compounds, preparation and use thereof” (Sanofi-Synthelabo, priority 1999, dated 2004).
# Assays:
# [1] = in particular in aqueous solution
# [2] = known from prior art
smiles,measurement,setting,value
[F][Ti]([F])([F])[F] [titanium tetrafluoride],stability,[1],relatively unstable
same,pH in aqueous solution,,about 1.5
same,formation of an amorphous protective layer (glaze) at the surface of the enamel of the tooth,[2],forming an amorphous protective layer
